In patent US6274715A, “Tricyclic erythromycin derivatives” (priority 1997, dated 2001):
Converted amounts (≈) assume the structure as drawn.

How the values were obtained:
Assay type in all cases: cell-based
[1] = system: STAPHYLOCOCCUS AUREUS A5177; assay: In vitro antibacterial activity, MIC, BHI agar dilution; conditions: S. aureus A5177, unit assumed
[2] = system: STAPHYLOCOCCUS AUREUS CMX 642A; assay: as above; conditions: S. aureus CMX 642A, unit assumed
[3] = system: MYCOBACTERIUM SMEGMATIS ATCC 114; assay: as above; conditions: M. smegmatis ATCC 114, unit assumed
[4] = system: STREPTOCOCCUS PYOGENES PIU 2548; assay: as above; conditions: S. pyogenes PIU 2548, unit assumed
[5] = system: STAPHYLOCOCCUS AUREUS CMX 553; assay: as above; conditions: S. aureus CMX 553, unit assumed
[6] = system: STAPHYLOCOCCUS AUREUS ATCC 6538P; assay: as above; conditions: S. aureus ATCC 6538P, 35-37° C., 20 to 24 hours, unit assumed
[7] = system: PSEUDOMONAS AERUGINOSA DPHD-5263; assay: as above; conditions: P. aeruginosa DPHD-5263, unit assumed
[8] = system: STAPHYLOCOCCUS AUREUS 1775; assay: as above; conditions: S. aureus 1775, unit assumed
M[…] ATCC 9341 = assay: as above; conditions: M. luteus ATCC 9341, unit assumed
In short: (§1)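 MIC was read visually as the lowest drug level with no growth, a slight haze or sparsely isolated colonies relative to a compound-free growth control. Organisms were spotted at 1:100 dilution (1:10 for slow-growing strains) onto Brain Heart Infusion agar containing serial compound dilutions and incubated 20 to 24 hours at 35-37° C.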

M[…] ATCC 4698 = assay: as above; conditions: M. luteus ATCC 4698, unit assumed
In short: as §1

STR[…] 508 = assay: as above; conditions: S. agalactiae CMX 508, unit assumed
In short: as §1

EN[…] ATCC 8043 = assay: as above; conditions: E. faecium ATCC 8043, unit assumed
In short: as §1

[9] = system: ENTEROBACTER AEROGENES ATCC 13048; assay: as above; conditions: E. aerogenes ATCC 13048, unit assumed
ESCHERICHIA COLI H560 = assay: as above; conditions: E. coli H560, unit assumed
[10] = system: PSEUDOMONAS AERUGINOSA K799/61; assay: as above; conditions: P. aeruginosa K799/61, unit assumed
[11] = system: STREPTOCOCCUS PYOGENES 930; assay: as above; conditions: S. pyogenes 930, unit assumed
PSEUDOMONAS CEPACIA 296I = assay: as above; conditions: P. cepacia 296I, unit assumed
[12] = system: STREPTOCOCCUS PYOGENES EES61; assay: as above; conditions: S. pyogenes EES61, unit assumed
ESCHERICHIA COLI KNK 437 = conditions: E. coli KNK 437; BHI agar; unit assumed
[13] = system: STAPHYLOCOCCUS AUREUS A-5278; assay: In vitro antibacterial activity, MIC, BHI agar dilution; conditions: S. aureus A-5278, unit assumed
[14] = system: PROVIDENCIA STUARTII CMX 640; conditions: P. stuartii CMX 640; BHI agar; unit assumed
[15] = system: STAPHYLOCOCCUS EPIDERMIDIS 3519; conditions: S. epidermidis 3519; BHI agar; unit assumed
ESCHERICHIA COLI SS = assay: In vitro antibacterial activity, MIC, BHI agar dilution; conditions: E. coli SS, unit assumed
[16] = system: ACINETOBACTER CALCOACETICUS CMX 669; assay: as above; conditions: A. calcoaceticus CMX 669, unit assumed
ESCHERICHIA COLI JUHL = conditions: E. coli JUHL; BHI agar; unit assumed
CANDIDA ALBICANS CCH 442 = assay: In vitro antibacterial activity, MIC, BHI agar dilution; conditions: C. albicans CCH 442, unit assumed
[17] = system: PSEUDOMONAS AERUGINOSA DPHD-2862; assay: as above; conditions: P. aeruginosa DPHD-2862, unit assumed
[18] = system: KLEBSIELLA PNEUMONIAE ATCC 8045; assay: as above; conditions: K. pneumoniae ATCC 8045, unit assumed
ESCHERICHIA COLI DC-2 = assay: as above; conditions: E. coli DC-2, unit assumed
[19] = system: STAPHYLOCOCCUS AUREUS NCTC10649M; assay: as above; conditions: S. aureus NCTC10649M, unit assumed
[20] = system: PSEUDOMONAS AERUGINOSA K799/WT; assay: as above; conditions: P. aeruginosa K799/WT, unit assumed
[21] = system: PSEUDOMONAS AERUGINOSA 5007; assay: as above; conditions: P. aeruginosa 5007, unit assumed
[22] = system: PSEUDOMONAS AERUGINOSA BMH10; assay: as above; conditions: P. aeruginosa BMH10, unit assumed
[23] = system: STREPTOCOCCUS BOVIS A-5169; assay: as above; conditions: S. bovis A-5169, unit assumed

| Compound | MIC [1] [µg/mL] | MIC [2] [µg/mL] | MIC [3] [µg/mL] | MIC [4] [µg/mL] | MIC [5] [µg/mL] | MIC [6] [µg/mL] | MIC [7] [µg/mL] | MIC [8] [µg/mL] | MIC (M[…] ATCC 9341) [µg/mL] | MIC (M[…] ATCC 4698) [µg/mL] | MIC (STR[…] 508) [µg/mL] | MIC (EN[…] ATCC 8043) [µg/mL] | MIC [9] [µg/mL] | MIC (ESCHERICHIA COLI H560) [µg/mL] | MIC [10] [µg/mL] | MIC [11] [µg/mL] | MIC (PSEUDOMONAS CEPACIA 296I) [µg/mL] | MIC [12] [µg/mL] | MIC (ESCHERICHIA COLI KNK 437) [µg/mL] | MIC [13] [µg/mL] | other results |
| --- | --- | --- | --- | --- | --- | --- | --- | --- | --- | --- | --- | --- | --- | --- | --- | --- | --- | --- | --- | --- | --- |
| CC[C@H]1OC(=O)[C@H](C)C(=O)[C@H](C)[C@@H](O[C@@H]2O[C@H](C)C[C@H](N(C)C)[C@H]2O)[C@](C)(OC)C[C@@H](C)C2=N[C@H](COCCN3CCOCC3)CN3C(=O)O[C@@]1(C)[C@H]3[C@H]2C [Example 87] | 1.56 (≈ 2 µM) | 1.56 (≈ 2 µM) | 12.5 (≈ 16 µM) | 3.1 (≈ 3.97 µM) | 1.56 (≈ 2 µM) | 1.56 (≈ 2 µM) | > 100 | > 100 | 0.1 (≈ 0.128 µM) | 1.56 (≈ 2 µM) | 0.2 (≈ 0.256 µM) | 0.39 (≈ 0.499 µM) | > 100 | > 100 | 3.1 (≈ 3.97 µM) | > 100 | > 100 | 0.2 (≈ 0.256 µM) | > 100 | > 100 | MIC [14]: > 100 µg/mL; MIC [15]: 1.56 µg/mL (≈ 2 µM); MIC (ESCHERICHIA COLI SS): 1.56 µg/mL (≈ 2 µM); MIC [16]: > 100 µg/mL; MIC (ESCHERICHIA COLI JUHL): > 100 µg/mL; MIC (CANDIDA ALBICANS CCH 442): > 100 µg/mL; MIC [17]: > 100 µg/mL; MIC [18]: > 100 µg/mL; MIC (ESCHERICHIA COLI DC-2): > 100 µg/mL; MIC [19]: 1.56 µg/mL (≈ 2 µM); MIC [20]: > 100 µg/mL; MIC [21]: > 100 µg/mL; MIC [22]: > 100 µg/mL; MIC [23]: 0.05 µg/mL (≈ 0.064 µM) |
| CCC1OC(=O)C(C)C(=O)C(C)C(OC2OC(C)CC(N(C)C)C2O)C(C)(OC)CC(C)C2=NC(CCOc3ccccc3)CN3C(=O)OC1(C)C3C2C (centres unmarked) [Example 91] | 0.78 (≈ 1.03 µM) | 0.78 (≈ 1.03 µM) | 1.56 (≈ 2.06 µM) | 0.39 (≈ 0.515 µM) | 0.78 (≈ 1.03 µM) | 0.78 (≈ 1.03 µM) | > 100 | > 100 | 0.1 (≈ 0.132 µM) | 0.39 (≈ 0.515 µM) | 0.05 (≈ 0.066 µM) | 0.1 (≈ 0.132 µM) | > 100 | > 100 | 12.5 (≈ 16.5 µM) | 100 (≈ 132 µM) | > 100 | 0.05 (≈ 0.066 µM) | > 100 | > 100 | MIC [14]: > 100 µg/mL; MIC [15]: 0.78 µg/mL (≈ 1.03 µM); MIC (ESCHERICHIA COLI SS): 3.1 µg/mL (≈ 4.09 µM); MIC [16]: > 100 µg/mL; MIC (ESCHERICHIA COLI JUHL): > 100 µg/mL; MIC (CANDIDA ALBICANS CCH 442): > 100 µg/mL; MIC [17]: > 100 µg/mL; MIC [18]: > 100 µg/mL; MIC (ESCHERICHIA COLI DC-2): > 100 µg/mL; MIC [19]: 0.78 µg/mL (≈ 1.03 µM); MIC [20]: > 100 µg/mL; MIC [21]: > 100 µg/mL; MIC [22]: > 100 µg/mL; MIC [23]: 0.01 µg/mL (≈ 0.0132 µM) |
